These are literature values, as cited in patent US20070020305A1, “Attractant for monitoring or controlling female stored product moths” (Board of Regents for Oklahoma State University, priority 2004, published 2007).

The test system of this data set is stored product moths. As to conditions: for Attraction of females and males: Indianmeal moth and Mediterranean flour moth, Toth et al. 2002.

As for `CC(=O)O` [acetic acid], the “Attraction of females and males” value is “would attract females and males”.

Consider `CCCCC/C=C\C=C\C(=O)OCC` [ethyl-decdienoate], for which the “Attractiveness to stored product moths, in words” value (background statement) is “not attractive”. As for `CC(C)CCO` [isoamyl alcohol], the “Attraction of females and males” value is “would attract females and males”.
